Values quoted from earlier work as cited in patent US20090258907A1, “COMPOUNDS USEFUL AS INHIBITORS OF ROCK KINASES” (ABBOTT LABORATORIES, priority 2008, published 2009).

Legend:
[1] = experimental myocardial infarction (MI); rat chronic hypertension induced congestive heart failure
[2] = test system: vascular smooth muscle cell (VSMC); conditions: vein grafts, weeks following the procedure
[3] = Zucker obese rats, 4 weeks
[4] = OLETF rats, high dose
[5] = CNS ischemic conditions
[6] = mouse, in vivo

O=S(=O)(c1cccc2cnccc12)N1CCCNCC1 [fasudil]
effect on ischemia-reperfusion injury, myocardial infarct size and myocardial fibrosis [1]: decrease ischemia-reperfusion injury, myocardial infarct size, and myocardial fibrosis
VSMC apoptosis [2]: enhanced
intimal thickening and VSMC proliferation [2]: significantly suppressed
blood pressure, glucose and lipid metabolism, insulin signalling, endothelial dysfunction [3]: reduced blood pressure, corrected glucose and lipid metabolism, improved insulin signalling and endothelial dysfunction
development of diabetes, obesity, dyslipidemia; serum adiponectin [4]: completely suppressed the development of diabetes, obesity, and dyslipidemia and increased serum adiponectin levels
cerebral blood flow and neuroprotection [5]: increased cerebral blood flow and was neuroprotective
efficacy in animal models of epileptogenesis [6]: efficacy
